Results as given in the NIST ThermoML archive (doi:10.1016/j.jct.2014.06.017).
Numbers after ± are expanded uncertainties.

Test: wn = mass fraction of the nth substance listed
Conditions: 100 kPa, Liquid, Concentric cylinders viscometry

NCCO [2-aminoethan-1-ol] + O
viscosity (298.2 K, w1 = 0.2): 1.72 ± 0.17 mPa·s | viscosity (298.2 K, w1 = 0.2499): 2.02 ± 0.2 mPa·s | viscosity (298.2 K, w1 = 0.3001): 2.32 ± 0.23 mPa·s | viscosity (303.2 K, w1 = 0.2): 1.53 ± 0.15 mPa·s | viscosity (303.2 K, w1 = 0.2499): 1.79 ± 0.18 mPa·s | viscosity (303.2 K, w1 = 0.3001): 2.13 ± 0.21 mPa·s | viscosity (313.2 K, w1 = 0.2): 1.18 ± 0.12 mPa·s | viscosity (313.2 K, w1 = 0.2499): 1.32 ± 0.13 mPa·s | viscosity (313.2 K, w1 = 0.3001): 1.59 ± 0.16 mPa·s | viscosity (323.2 K, w1 = 0.2): 0.98 ± 0.1 mPa·s | viscosity (323.2 K, w1 = 0.2499): 1.12 ± 0.11 mPa·s | viscosity (323.2 K, w1 = 0.3001): 1.31 ± 0.13 mPa·s

CN(CCO)CCO [N-methyldiethanolamine] + O
viscosity (298.2 K, w1 = 0.3502): 4.07 ± 0.41 mPa·s | viscosity (298.2 K, w1 = 0.4001): 5.2 ± 0.52 mPa·s | viscosity (298.2 K, w1 = 0.45): 7.62 ± 0.77 mPa·s | viscosity (303.2 K, w1 = 0.3502): 3.36 ± 0.34 mPa·s | viscosity (303.2 K, w1 = 0.4001): 4.41 ± 0.44 mPa·s | viscosity (303.2 K, w1 = 0.45): 6.1 ± 0.61 mPa·s | viscosity (313.2 K, w1 = 0.3502): 2.56 ± 0.26 mPa·s | viscosity (313.2 K, w1 = 0.4001): 3.02 ± 0.3 mPa·s | viscosity (313.2 K, w1 = 0.45): 4.37 ± 0.44 mPa·s | viscosity (323.2 K, w1 = 0.3502): 2.02 ± 0.2 mPa·s | viscosity (323.2 K, w1 = 0.4001): 2.65 ± 0.27 mPa·s | viscosity (323.2 K, w1 = 0.45): 3.63 ± 0.36 mPa·s

OCCNCCO [diethanolamine] + O
viscosity (298.2 K, w1 = 0.2001): 1.92 ± 0.19 mPa·s | viscosity (298.2 K, w1 = 0.25): 2.61 ± 0.26 mPa·s | viscosity (298.2 K, w1 = 0.3001): 3.26 ± 0.33 mPa·s | viscosity (303.2 K, w1 = 0.2001): 1.67 ± 0.17 mPa·s | viscosity (303.2 K, w1 = 0.25): 2.16 ± 0.22 mPa·s | viscosity (303.2 K, w1 = 0.3001): 2.57 ± 0.26 mPa·s | viscosity (313.2 K, w1 = 0.2001): 1.32 ± 0.13 mPa·s | viscosity (313.2 K, w1 = 0.25): 1.67 ± 0.17 mPa·s | viscosity (313.2 K, w1 = 0.3001): 1.99 ± 0.2 mPa·s | viscosity (323.2 K, w1 = 0.2001): 1.05 ± 0.11 mPa·s | viscosity (323.2 K, w1 = 0.25): 1.34 ± 0.13 mPa·s | viscosity (323.2 K, w1 = 0.3001): 1.41 ± 0.14 mPa·s
